What was measured:
Type in all cases: cell-based
[1] = test system: Lactococcus lactis subsp. cremoris strain MG1363; assay: Culturing in the presence of protoporphyrin IX (Example 1.2); details: for Concentration of lactic acid / Final pH / Number of viable cells / OD600 nm: 1% glucose, 24 h
Experimental: A laboratory medium (M17 supplemented with 1% glucose) is inoculated with the Lacrococcus lactis subsp. cremoris strain MG1363 in the form of a 1/1000 dilution of a saturated culture (prepared at 30° C. with no shaking). The inoculated medium contained or not protoporphyrin IX at a final concentration of 10 μg/ml (a 0.5 mg/ml stock solution is prepared by adding 100 mg of protoporphyin IX to 2 ml of 5N NaOH, to which 198 ml of water is then added; the solution is autoclaved at 120° C. for 20 minutes). For bacteria grown in medium containing protoporphyrin IX, cultures were maintained at 30° C. with shaking (250 rotations per minute) in order to ensure oxygenation, or without shaking as a control. Two other control cultures, without protoporphyin IX or without shaking, were grown at 30° C. in parallel. After 24 h of growth, aliquots are removed to measure the optical density at 600 nm (OD600 nm), the number of viable bacteria, the final pH and the concentration of lactate in the medium.

[2] = test system: Lactococcus lactis subsp. cremoris strain MG1363; assay: Survival of the lactic acid bacteria during storage at 4° C. (Example 3); details: for Number of cells per ml: porphyrin compound and aeration, 1% glucose M17, storage at 4° C.
Experimental: A laboratory medium, i.e. M17 supplemented with 1% of glucose, is inoculated with Lactococcus lactis subsp. cremoris strain MG1363 in the form of a 1/1000 dilution of a saturated culture. The cultures are then divided into two equal parts, and hemin is added to one of these two cultures to give a final concentration of 10 μg/ml. […] Aliquots of the two cultures are removed regularly during the exponential growth phase in order to monitor viability, rate of growth and pH. After 24 h of growth, the cultures are placed (stored) in a 30° C. incubator without shaking, and aliquots are removed every 24 h in order to monitor the viability of the cells. The Lactococcus lactis subsp. cremoris strain MG1363 was cultured as in the experiment described in Example 2, but the storage, which is carried out 24 h after inoculation, is at 4° C. instead of at 30° C.

[3] = test system: Lactococcus lactis subsp. cremoris strain MG1363; assay: Culturing in the presence of chlorophyllin (Example 1.3); details: cultures in the presence of chlorophyllin, not shaken
Experimental: A laboratory medium (M17 supplemented with 1% glucose) is inoculated with the Lactococcus lactis subsp. cremoris strain MG1363 in the form of a 1/1000 dilution of a saturated culture (prepared at 30° C. with no shaking). The inoculated medium contained or not chlorophyllin (a degradation product of chlorophyll) at a final concentration of 10 μg/ml. In order for it to be active, the chlorophyllin was incubated beforehand in an acidic medium and in the presence of traces of iron in order to replace the Cu atom with an Fe atom. This can, for example, be done as follows: a) by incubating a concentrated solution of chlorophyllin for 24 h in a laboratory medium (M17 supplemented with glucose) which was inoculated with 10^6 lactococci per ml and maintained at 30° C. for 24 h. The supernatant containing the chlorophyllin at a concentration of 100 μg/ml is filtered and then added to the culture medium so as to obtain a final concentration of 10 μg/mi. b) by incubating a concentrated solution of chlorophyllin for 24 h in M17 at a pH of between 3 and 5 (acidified with HCl) and at a temperature of 4° C., 30° C. or 60° C. The pH is then readjusted to 7. […] The pH is then readjusted to 7. […]

[4] = with protoporphyrin IX 10 μg/ml and aeration
[5] = with protoporphyrin IX 10 μg/ml but without aeration

C=CC1=C(C)c2cc3[nH]c(cc4nc(cc5[nH]c(cc1n2)c(C)c5CCC(=O)O)C(CCC(=O)O)=C4C)c(C)c3C=C [protoporphyrin IX]
production of lactic acid as share of the quantity of sugar added ([1]; cells cultured in the presence of protoporphyrin IX and oxygen): less than 40% | pH of the culture (remains stable) ([1]; protoporphyrin IX and oxygen): approximately 5.5 | Concentration of lactic acid [1, 4]: 1.9 g/L | Final pH [1, 4]: 5.49 | Number of viable cells [1, 4]: 6.9 ×10^9 | OD600 nm [1, 4]: 4.6 | Concentration of lactic acid [1, 5]: 8.2 g/L | Final pH [1, 5]: 4.53 | Number of viable cells [1, 5]: 2.7 ×10^9 | OD600 nm [1, 5]: 2.5 | survival rate ([2]; after 2 months at 4° C., cultured with porphyrin compound under aeration): ~1% | Number of cells per ml ([2]; 0 days after culture): 6.4 × 10^9 cells per ml | Number of cells per ml ([2]; 1 day after culture): 6.2 × 10^9 cells per ml | Number of cells per ml ([2]; 2 days after culture): 5.6 × 10^9 cells per ml | Number of cells per ml ([2]; 3 days after culture): 5.4 × 10^9 cells per ml | Number of cells per ml ([2]; 7 days after culture): 4.0 × 10^9 cells per ml | Number of cells per ml ([2]; 8 days after culture): 2.8 × 10^9 cells per ml | Number of cells per ml ([2]; 9 days after culture): 1.9 × 10^9 cells per ml | Number of cells per ml ([2]; 10 days after culture): 3.9 × 10^8 cells per ml | Number of cells per ml ([2]; 13 days after culture): 1.7 × 10^8 cells per ml | Number of cells per ml ([2]; 15 days after culture): 6.0 × 10^7 cells per ml | Number of cells per ml ([2]; 22 days after culture): 5.9 × 10^7 cells per ml | Number of cells per ml ([2]; 28 days after culture): 5.4 × 10^7 cells per ml | Number of cells per ml ([2]; 36 days after culture): 5.4 × 10^7 cells per ml | Number of cells per ml ([2]; 43 days after culture): 5.3 × 10^7 cells per ml | Number of cells per ml ([2]; 50 days after culture): 4.8 × 10^7 cells per ml | Number of cells per ml ([2]; 57 days after culture): 5.3 × 10^7 cells per ml

chlorophyllin
variation of OD600 nm and pH from the control [3]: No significant variation from the control

From patent US20160075991A1, “Process for Preparing Starter Cultures of Lactic Acid Bacteria” (INSTITUT NATIONAL DE LA RECHERCHE, priority 1998, published 2016)
